# Experimental data from EP0338042B1, “COMPOSITION AND METHOD FOR TREATING HEPATITIS VIRUS INFECTIONS USING 1-(2'-DEOXY-2'-FLUORO-BETA-D-ARABINOFURANOSYL)-5-ETHYLURACIL” (priority 1987, dated 1989).
# pEC50: −log10 of the molar value. “And” between values parts separate entries of the source, which are not always exact repeats. Identical values can stand only once.
# Assays:
# HL-60 CELLS = experiment: Inhibition of cell growth; type: cell-based; conditions: Homo sapiens, HL-60, read-out: ED50 FOR INHIBITING CELL GROWTH IN HL-60 CELLS
# P-815 CELLS = experiment: Inhibition of thymidine incorporation into DNA; type: cell-based, rodent; conditions: Mus musculus, P815, read-out: ED50 FOR […] INC[…] DNA, P-815 CELLS; read-out: ED50 FOR INHIBITING THYMIDINE INCORPORATION INTO DNA, P-815 CELLS
# L-1210 = experiment: Incorporation of 2-14C-labeled nucleoside into DNA of cells; type: cell-based, rodent; conditions: FEAU also not detectable at 100 μM
# Text: There was no detectable incorporation of FEAU radioactivity into the DNA of either L-1210 or Vero cell lines, but substantial amounts of FMAU radioactivity were incorporated into the DNA of both cell lines. When HSV-1 infected Vero cells were exposed to ¹⁴C-labeled FEAU and FMAU, both nucleosides incorporated into the DNA of these virus-infected cells.
# HL-60 CELLS MIT[…] = biological target: T1, HL-60 CELLS MIT[…] (Homo sapiens, UniProt O00142); experiment: Phosphorylation by thymidine kinase relative to thymidine; type: biochemical; conditions: thymidine at 400 µM
# T1 construct: cytosol and mitochondrial TK's derived from the HL-60 human cell line; endogenous in cells; host or cells: HL-60
# T1 sequence (O00142 34-265): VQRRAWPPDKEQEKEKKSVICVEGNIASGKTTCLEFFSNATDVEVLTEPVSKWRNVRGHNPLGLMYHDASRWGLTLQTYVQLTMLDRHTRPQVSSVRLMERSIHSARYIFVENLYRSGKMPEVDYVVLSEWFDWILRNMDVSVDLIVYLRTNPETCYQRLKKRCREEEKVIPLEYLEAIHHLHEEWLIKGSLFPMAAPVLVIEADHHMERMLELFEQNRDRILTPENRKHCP
# Text: (§1) It is generally accepted that the selective anti-herpes activity of 2′-fluoro-arabinosylpyrimidine nucleosides is associated in large measure with their ability to be recognized as good substrates for HSV-specified thymidine kinase (TK), but not by the host TK (14, 15). […] By contrast, FEAU is a very poor substrate for the host HL-60 derived TKs (13). […] Their data also indicate that, in uninfected Vero cells, FEAU would be phosphorylated at a very low rate in the presence of thymidine.
# HSV-1 (STRAIN KOS) TK = HSV-1 (STRAIN KOS) TK (Human herpesvirus 1, UniProt P17402); experiment: as above; type: biochemical; conditions: thymidine at 400 µM
# HSV-1 (STRAIN KOS) TK, sequence (P17402 whole entry, looked up): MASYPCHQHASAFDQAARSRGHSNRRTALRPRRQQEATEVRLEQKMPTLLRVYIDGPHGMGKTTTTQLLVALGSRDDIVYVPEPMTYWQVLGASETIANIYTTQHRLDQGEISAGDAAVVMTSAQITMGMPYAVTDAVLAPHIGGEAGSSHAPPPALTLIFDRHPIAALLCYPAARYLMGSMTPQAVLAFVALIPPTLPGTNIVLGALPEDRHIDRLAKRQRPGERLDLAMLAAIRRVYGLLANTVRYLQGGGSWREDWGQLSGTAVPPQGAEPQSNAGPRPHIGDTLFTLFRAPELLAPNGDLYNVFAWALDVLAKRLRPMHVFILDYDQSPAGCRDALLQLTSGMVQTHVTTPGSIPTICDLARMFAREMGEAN
# Text: as §1
# HSV-2 (STRAIN 333) TK = HSV-2 (STRAIN 333) TK (Human herpesvirus 2, UniProt P04407); experiment: as above; type: biochemical; conditions: thymidine at 400 µM
# HSV-2 (STRAIN 333) TK, sequence (P04407 whole entry): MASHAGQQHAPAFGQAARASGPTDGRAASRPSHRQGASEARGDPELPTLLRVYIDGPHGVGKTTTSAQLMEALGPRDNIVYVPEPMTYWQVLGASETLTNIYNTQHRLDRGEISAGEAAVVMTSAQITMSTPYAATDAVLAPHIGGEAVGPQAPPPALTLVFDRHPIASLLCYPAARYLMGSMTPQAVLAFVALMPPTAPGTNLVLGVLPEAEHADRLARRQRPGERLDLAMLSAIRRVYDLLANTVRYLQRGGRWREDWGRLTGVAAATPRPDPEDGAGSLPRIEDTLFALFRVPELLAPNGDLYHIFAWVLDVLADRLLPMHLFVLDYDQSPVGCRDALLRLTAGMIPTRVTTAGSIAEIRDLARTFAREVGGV
# Text: as §1
# HSV-1(F) = conditions: plaque reduction in Vero cells, cited from earlier work
smiles,measurement,setting,value
"CCc1cn([C@@H]2O[C@H](CO)[C@@H](O)[C@@H]2F)c(=O)[nH]c1=O [FEAU, 1-(2'-deoxy-2'-fluoro-beta-D-arabino-furanosyl)-5-ethyl-uracil]",pEC50,HL-60 CELLS,2.69
same,pEC50,P-815 CELLS,3.15
same,"INCORPORATION INTO DNA AT 10μM, L-1210",L-1210,NOT DETECTABLE*
same,"PERCENTAGE RATES OF PHOSPHORYLATION (RELATIVE TO THYMIDINE), HL-60 CELLS MITOCHONDRIAL TK",HL-60 CELLS MIT[…],219.0%
same,"PERCENTAGE RATES OF PHOSPHORYLATION (RELATIVE TO THYMIDINE), HSV-1 (STRAIN KOS) TK",HSV-1 (STRAIN KOS) TK,82.7% and 42.0%
same,"PERCENTAGE RATES OF PHOSPHORYLATION (RELATIVE TO THYMIDINE), HSV-2 (STRAIN 333) TK",HSV-2 (STRAIN 333) TK,203.2% and 146.6%
same,pEC50,HSV-1(F); read-out: HSV-1(F) ED₅₀,7.62
same,EC90,HSV-1(F); read-out: HSV-1(F) ED₉₀,0.26 µM
